Data: patent US20120108629A1, “New use of neferine” (Institute of Chinese Materia Medica, China Academy, priority 2009, published 2012)

Experiments:
TRPM8 mRNA = TRPM8 mRNA expression in DRG cells by real-time PCR; conditions: DRG cells
Description: DRG were aseptically removed and meticulously cleaned the rootlets and connective tissue. The tissue was digested with collagenase and trypsin in succession, and then centrifuged and the digestive liquid was discarded. Cells were prepared into single cell suspension in common culture medium, and then calculated and adjusted to 10^5 nerve cells per ml. It was incubated in culture plates pre-coated with laminin at 37° C. in 5% CO2 for 48 hours. Camptothecine was used to inhibit proliferation of other cells. Culture was continued to obtain DRG cells with a high purity (>98%).
Detection of TRPM8 and TRPV1 mRNA expression: The total RNA of the DRG neuronal cells was extracted in a routine way, after exposure to the tested agents of various concentrations under the normal, low and high temperature conditions respectively. The concentration of RNA was measured and its cDNA was prepared. The desired amount of resulting cDNA and TRPM8 or TRPV1 gene primers were added on the IQ5-Type real-time IQ5-Type real-time PCR meter with GAPDH as the endogenous control to perform extension. Melting curves were generated. Relative gene expression was calculated using the comparative threshold cycle (2-^ΔΔCT) method with the calculated formula as following:
ΔΔCt=(Ct,Target-Ct,GAPDH)x-(Ct,Target-Ct,GAPDH)Control
X represents any one of tested, Control represents double target gene expression after GAPDH correction.
The purified culture medium of DRG cells was added with three different concentrations of test compounds and cultured at 37° C. in 5% CO2 for 24 h. The total RNA was extracted immediately after culture. The TRPM8 agonist hexahydrothymol was positive control group and the normal culture medium was vehicle control group. Then the real-time PCR amplification was performed and TRPM8 mRNA was determined.
The purified culture medium of DRG cells was added with three different concentrations of test compounds and cultured at 37° C. in 5% CO2 for 23 h followed by 39° C. in 5% CO2 for 1 h. The total RNA was extracted immediately after culture. The TRPM8 agonist hexahydrothymol was positive control group and the normal culture medium was vehicle control group. Then the real-time PCR amplification was performed and TRPM8 mRNA was determined.
The purified culture medium of DRG cells was added with three different concentrations of test compounds and cultured at 37° C. in 5% CO2 for 22 h followed by 19° C. in 5% CO2 for 2 h. The total RNA was extracted immediately after culture. The TRPM8 agonist hexahydrothymol was positive control group and the normal culture medium was vehicle control group. Then the real-time PCR amplification was performed and TRPM8 mRNA was determined.

TRPV1 mRNA = TRPV1 mRNA expression in DRG cells by real-time PCR; type: cell-based, rat; conditions: for TRPV1 mRNA expression (2^−ΔΔCT): 37° C. 24 h
TRPV1 [1] = assay: Intracellular calcium change in DRG cells, Fluo-4 fluorescence (Examples 4-5, Tables 4-5); type: cell-based, rat
Description: (§1) Detection of intracellular calcium concentrations of DRG cells: DRG cells cultured under normal, low and high temperature conditions was obtained. The medium was discarded and the cells were washed after certain time. 0.1%F-127, 5 μM of Fluo-4-AM, M fluorescent dye were added and loaded at 25° C. out of light for 30 min. After dye loading, the redundant dye was washed out and buffer and test compounds were added respectively. The cells were put in a closed chamber on a microscope stage. Fluorescence dyed cells were detected with appropriate conditions. The change of fluorescence intensity in each cell was determined and the data were analyzed by software. The change of the intracellular calcium concentration was indicated by fluorescence intensity. The change degree of the intracellular calcium concentration was represented by the percent ratio of the change value of fluorescence intensity before and after administration and the value of fluorescence intensity before administration (Δ[Ca2+]i), i.e. Δ[Ca2+]i=(fluorescence intensity value after administration F-fluorescence intensity value before administration F0)/fluorescence intensity value before administration F0×100%. The change of the intracellular calcium concentration indicated the function of TRP.
(§2) The medium was discarded and the fluorescent dye was added and loaded for 30 min. The change of fluorescence intensity in cell was determined in a closed chamber on a microscope stage and the change of the intracellular calcium concentration was assayed.
as §2

TRPV1 [2] = molecular target: TRPV1 (Rattus norvegicus, UniProt O35433); assay: Intracellular calcium change in DRG cells, Fluo-4 fluorescence (Examples 9-11, Tables 9-11); type: cell-based
Description: as §1, §2, §2
(this is the appropriate stimulation time for the intracellular calcium change after stimulation under 19° C., and the experiment data was not shown). The medium was discarded and the fluorescent dye was added and loaded for 30 min.

[3] = 37° C. 22 h then 19° C. 2 h, 37.5 μmol/L
[4] = 37° C. 22 h then 19° C. 2 h, 75 μmol/L
[5] = 37° C. 22 h then 19° C. 2 h, 150 μmol/L
[6] = 37° C. 23 h then 39° C. 1 h, 37.5 μmol/L
[7] = 37° C. 23 h then 39° C. 1 h, 75 μmol/L
[8] = 37° C. 23 h then 39° C. 1 h, 150 μmol/L

TRPV1 (Rattus norvegicus, UniProt O35433), sequence (O35433 whole entry): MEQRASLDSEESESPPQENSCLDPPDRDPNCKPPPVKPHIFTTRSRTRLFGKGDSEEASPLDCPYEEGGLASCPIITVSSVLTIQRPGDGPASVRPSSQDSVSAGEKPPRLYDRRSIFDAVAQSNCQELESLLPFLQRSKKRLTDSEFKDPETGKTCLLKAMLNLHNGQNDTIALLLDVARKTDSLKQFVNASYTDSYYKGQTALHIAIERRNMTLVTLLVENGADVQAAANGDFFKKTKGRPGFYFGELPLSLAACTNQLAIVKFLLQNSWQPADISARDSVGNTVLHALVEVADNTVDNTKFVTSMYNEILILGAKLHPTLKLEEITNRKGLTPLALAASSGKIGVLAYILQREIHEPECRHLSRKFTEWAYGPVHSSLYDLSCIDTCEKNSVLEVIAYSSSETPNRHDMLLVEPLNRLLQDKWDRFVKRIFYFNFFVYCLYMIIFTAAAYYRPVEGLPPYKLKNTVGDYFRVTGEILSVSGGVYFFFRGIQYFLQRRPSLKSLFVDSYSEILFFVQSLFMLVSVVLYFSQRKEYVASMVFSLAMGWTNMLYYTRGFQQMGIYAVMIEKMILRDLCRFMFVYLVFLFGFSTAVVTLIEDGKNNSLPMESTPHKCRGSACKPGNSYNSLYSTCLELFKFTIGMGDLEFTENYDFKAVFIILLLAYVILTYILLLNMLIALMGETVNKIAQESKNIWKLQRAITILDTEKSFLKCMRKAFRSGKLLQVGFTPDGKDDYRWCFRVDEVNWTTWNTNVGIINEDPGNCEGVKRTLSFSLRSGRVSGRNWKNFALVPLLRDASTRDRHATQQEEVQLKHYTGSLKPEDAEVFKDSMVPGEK

Compound: CC1CCC(C(C)C)C(O)C1 (stereo not drawn) [hexahydrothymol, reference compound]
- TRPM8 mRNA expression (2^−ΔΔCT) (TRPM8 mRNA; [3]): 3.67 ± 0.93
- TRPM8 mRNA expression (2^−ΔΔCT) (TRPM8 mRNA; [4]): 3.72 ± 1.09
- TRPM8 mRNA expression (2^−ΔΔCT) (TRPM8 mRNA; [5]): 4.07 ± 1.12
- TRPM8 mRNA expression (2^−ΔΔCT) (TRPM8 mRNA; [6]): 0.89 ± 0.25
- TRPM8 mRNA expression (2^−ΔΔCT) (TRPM8 mRNA; [7]): 0.91 ± 0.27
- TRPM8 mRNA expression (2^−ΔΔCT) (TRPM8 mRNA; [8]): 0.96 ± 0.32
- TRPM8 mRNA expression (2^−ΔΔCT) (TRPM8 mRNA; 37° C. 24 h, 37.5 μmol/L): 1.13 ± 0.22
- TRPM8 mRNA expression (2^−ΔΔCT) (TRPM8 mRNA; 37° C. 24 h, 75 μmol/L): 1.20 ± 0.28
- TRPM8 mRNA expression (2^−ΔΔCT) (TRPM8 mRNA; 37° C. 24 h, 150 μmol/L): 1.29 ± 0.31
- TRP V1 mRNA expression(2^−ΔΔCT) (TRPV1 mRNA; [3]): 0.54 ± 0.17
- TRP V1 mRNA expression(2^−ΔΔCT) (TRPV1 mRNA; [4]): 0.48 ± 0.19
- TRP V1 mRNA expression(2^−ΔΔCT) (TRPV1 mRNA; [5]): 0.47 ± 0.15
- TRP V1 mRNA expression(2^−ΔΔCT) (TRPV1 mRNA; [6]): 4.22 ± 0.49
- TRP V1 mRNA expression(2^−ΔΔCT) (TRPV1 mRNA; [7]): 4.01 ± 0.73
- TRP V1 mRNA expression(2^−ΔΔCT) (TRPV1 mRNA; [8]): 4.05 ± 0.81
- TRPV1 mRNA expression (2^−ΔΔCT) (TRPV1 mRNA; 37.5 μmol): 0.96 ± 0.21
- TRPV1 mRNA expression (2^−ΔΔCT) (TRPV1 mRNA; 75 μmol): 1.10 ± 0.28
- TRPV1 mRNA expression (2^−ΔΔCT) (TRPV1 mRNA; 150 μmol): 1.08 ± 0.31
- Intracellular Calcium changes [(F1 − F0)/F0/%] (TRPV1 [1]; Table 4, DRG cells, 37° C. 24 h, 37.5 μmol/L): 116.52 ± 10.22%
- Intracellular Calcium changes [(F1 − F0)/F0/%] (TRPV1 [1]; Table 4, DRG cells, 37° C. 24 h, 75 μmol/L): 117.46 ± 13.58%
- Intracellular Calcium changes [(F1 − F0)/F0/%] (TRPV1 [1]; Table 4, DRG cells, 37° C. 24 h, 150 μmol/L): 120.65 ± 12.19%
- Intracellular Calcium changes [(F1 − F0)/F0/%] (TRPV1 [1]; Table 5, DRG cells, 37° C. 22 h then 39° C. 2 h, 37.5 μmol/L): 107.54 ± 13.09%
- Intracellular Calcium changes [(F1 − F0)/F0/%] (TRPV1 [1]; Table 5, DRG cells, 37° C. 22 h then 39° C. 2 h, 75 μmol/L): 108.63 ± 15.17%
- Intracellular Calcium changes [(F1 − F0)/F0/%] (TRPV1 [1]; Table 5, DRG cells, 37° C. 22 h then 39° C. 2 h, 150 μmol/L): 112.92 ± 13.19 %
- Intracellular Calcium changes [(F1 − F0)/F0/%] (TRPV1 [2]; Table 9, DRG cells, 37° C. 24 h, 37.5 μmol/L): 100.14 ± 11.26%
- Intracellular Calcium changes [(F1 − F0)/F0/%] (TRPV1 [2]; Table 9, DRG cells, 37° C. 24 h, 75 μmol/L): 101.82 ± 14.89%
- Intracellular Calcium changes [(F1 − F0)/F0/%] (TRPV1 [2]; Table 9, DRG cells, 37° C. 24 h, 150 μmol/L): 98.31 ± 12.17%
- Intracellular Calcium changes [(F1 − F0)/F0/%] (TRPV1 [2]; Table 10, DRG cells, 37° C. 22 h then 39° C. 2 h, 37.5 μmol/L): 133.49 ± 15.18%
- Intracellular Calcium changes [(F1 − F0)/F0/%] (TRPV1 [2]; Table 10, DRG cells, 37° C. 22 h then 39° C. 2 h, 75 μmol/L): 132.01 ± 14.50%
- Intracellular Calcium changes [(F1 − F0)/F0/%] (TRPV1 [2]; Table 10, DRG cells, 37° C. 22 h then 39° C. 2 h, 150 μmol/L): 126.08 ± 12.48%
- Intracellular Calcium changes [(F1 − F0)/F0/%] (TRPV1 [2]; Table 11, DRG cells, 37° C. 21 h then 19° C. 3 h, 37.5 μmol/L): 96.91 ± 11.34%
- Intracellular Calcium changes [(F1 − F0)/F0/%] (TRPV1 [2]; Table 11, DRG cells, 37° C. 21 h then 19° C. 3 h, 75 μmol/L): 96.75 ± 11.08%
- Intracellular Calcium changes [(F1 − F0)/F0/%] (TRPV1 [2]; Table 11, DRG cells, 37° C. 21 h then 19° C. 3 h, 150 μmol/L): 95.48 ± 10.23%
